Experimental data from patent publication US20240199587A1, “HETEROCYCLIC COMPOUNDS” (Hoffmann-La Roche Inc., priority 2021, published 2024).

These compounds were tested against T1, MAGL (Homo sapiens, UniProt Q99685) (assay: 2-AG assay (MAGL inhibitory activity, hydrolysis of 2-arachidonoylglycerol to arachidonic acid followed by mass spectrometry)). Conditions: 8 μM 2-arachidonoylglycerol, 15 min pre-incubation, 30 min incubation at RT, RapidFire MS readout.
T1 sequence (Q99685 1-303): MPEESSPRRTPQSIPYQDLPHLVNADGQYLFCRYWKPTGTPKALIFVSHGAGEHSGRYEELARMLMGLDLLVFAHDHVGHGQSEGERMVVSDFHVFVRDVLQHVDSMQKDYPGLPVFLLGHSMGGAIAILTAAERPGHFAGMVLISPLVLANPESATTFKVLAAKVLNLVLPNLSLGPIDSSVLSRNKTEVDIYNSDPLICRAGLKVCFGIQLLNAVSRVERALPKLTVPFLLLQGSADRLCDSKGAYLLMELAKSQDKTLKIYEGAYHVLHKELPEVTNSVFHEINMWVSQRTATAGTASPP
Type: biochemical
Excerpt: Compounds of formula (I) were profiled for MAGL inhibitory activity by determining the enzymatic activity by following the hydrolysis of the natural substrate 2-arachidonoylglycerol (2-AG) resulting in arachidonic acid, which can be followed by mass spectrometry. This assay is hereinafter abbreviated “2-AG assay”.
Compounds of formula (I) were profiled for MAGL inhibitory activity by determining the enzymatic activity by following the hydrolysis of the natural substrate 2-arachidonoylglycerol (2-AG) resulting in arachidonic acid, which can be followed by mass spectrometry. This assay is hereinafter abbreviated “2-AG assay”. The 2-AG assay was carried out in 384 well polypropylene assay plates. […] Compound dilutions were added to MAGL protein in assay buffer (50 mM TRIS, 1 mM EDTA, 0.01% (v/v) Tween-20, 2.5% (v/v) DMSO). After shaking, the plate was incubated for 15 min at RT. To start the reaction, 2-arachidonoylglycerol in assay buffer was added. The final concentrations in the assay was […] for MAGL protein and 8 μM 2-arachidonoylglyerol. After shaking and 30 min incubation at RT, the reaction was quenched by the addition of two assay volumes of acetonitrile containing 4 μM of d8-arachidonic acid. The amount of arachidonic acid formed was traced by an online SPE system (Agilent Rapidfire) coupled to a triple quadrupole mass spectrometer. A C18 SPE cartridge (Agilent G9205A) was used in an acetonitrile/water liquid setup. The mass spectrometer was operated in negative electrospray mode following the mass transitions 303.1→259.1 for arachidonic acid and 311.1→267.0 for d8-arachidonic acid. The activity of the compounds was calculated based on the ratio of intensities [arachidonic acid/d8-arachidonic acid].

Point of comparison: `N=S(=O)(c1cccc(CC2CC3(C2)CN(C(=O)N2CC4(CC(n5cnc(C6(O)CC6)n5)C4)C2)C3)c1)C(F)(F)F` (single isomer, unassigned) [Example 406, [6-[3-(1-hydroxycyclopropyl)-1,2,4-triazol-1-yl]-2-azaspiro[3.3]heptan-2-yl]-[6-[[3-(trifluoromethyl-sulfonimidoyl)phenyl]methyl]-2-azaspiro[3.3]heptan-2-yl]methanone], IC50 1.63 nM. Against it:
- O=C(N1C[C@H]2CC(Oc3ccc(C(F)(F)F)cc3F)C[C@H]2C1)N1CC2(CC(n3cnc(C4CC4)n3)C2)C1 (mixture of isomers) [Example 89, [6-(3-cyclopropyl-1,2,4-triazol-1-yl)-2-azaspiro[3.3]heptan-2-yl]-[rac-(3aS,6aR)-5-[2-fluoro-4-(trifluoromethyl)phenoxy]-3,3a,4,5,6,6a-hexahydro-1H-cyclopenta[c]pyrrol-2-yl]methanone] — 1.5-fold higher, 2.5 nM
- O=C(N1C[C@H]2CC(Oc3ccc(F)cc3Cl)C[C@H]2C1)N1CC2(CC(n3cnc(C4CC4)c3)C2)C1 (mixture of isomers) [Example 91, [6-(4-cyclopropylimidazol-1-yl)-2-azaspiro[3.3]heptan-2-yl]-[rac-(3aR,6aS)-5-(2-chloro-4-fluoro-phenoxy)-3,3a,4,5,6,6a-hexahydro-1H-cyclopenta[c]pyrrol-2-yl]methanone] — 3.9-fold higher, 6.3 nM
- O=C(N1C[C@H]2CC(Oc3ccc(F)cc3Cl)C[C@H]2C1)N1CC2(CC(n3cnc(C4CC4)n3)C2)C1 (mixture of isomers) [Example 93, [6-(3-cyclopropyl-1,2,4-triazol-1-yl)-2-azaspiro[3.3]heptan-2-yl]-[rac-(3aR,6aS)-5-(2-chloro-4-fluoro-phenoxy)-3,3a,4,5,6,6a-hexahydro-1H-cyclopenta[c]pyrrol-2-yl]methanone] — 1.6-fold lower, 1 nM
- O=C(N1C[C@H]2CC(Oc3ccc(F)c(Cl)c3)C[C@H]2C1)N1CC2(CC(n3cnc(C4CC4)n3)C2)C1 (mixture of isomers) [Example 126, [6-(3-cyclopropyl-1,2,4-triazol-1-yl)-2-azaspiro[3.3]heptan-2-yl]-[rac-(3aS,6aR)-5-(4-fluoro-3-chloro-phenoxy)-3,3a,4,5,6,6a-hexahydro-1H-cyclopenta[c]pyrrol-2-yl]methanone] — within 1.5-fold, 1.5 nM
- O=C(N1C[C@H]2CC(Oc3ccc(F)cc3Cl)C[C@H]2C1)N1CC2(CC(n3cnnc3C3CC3)C2)C1 (mixture of isomers) [Example 178, [6-(3-cyclopropyl-1,2,4-triazol-4-yl)-2-azaspiro[3.3]heptan-2-yl]−[rac-(3aS,6aR)-5-(2-chloro-4-fluoro-phenoxy)-3,3a,4,5,6,6a-hexahydro-1H-cyclopenta[c]pyrrol-2-yl]methanone] — 96-fold higher, 156 nM
- O=C(N1CC(c2ccc(N3CCC(O)(C(F)(F)F)C3)nc2)C1)N1CC2(CC(n3cnc(C4CC4)n3)C2)C1 (single isomer, unassigned) [Example 214] — within 1.5-fold, 1.6 nM
- NC(=O)C(c1ccc(F)cc1)C1CCN(C(=O)N2CC3(CC(n4cnc(C5CC5)n4)C3)C2)CC1 (single isomer, unassigned) [Example 291] — 47-fold higher, 76.2 nM
- NC(=O)C(c1ccc(F)cc1)C1CCN(C(=O)N2CC3(CC(n4cnc(C5CC5)n4)C3)C2)CC1 (single isomer, unassigned) [Example 301] — 60-fold higher, 97.3 nM
- N=S(=O)(c1cccc(CC2CC3(C2)CN(C(=O)N2CC4(CC(n5cnc(C6(O)CC6)n5)C4)C2)C3)c1)C(F)(F)F (single isomer, unassigned) [Example 407, [6-[3-(1-hydroxycyclopropyl)-1,2,4-triazol-1-yl]-2-azaspiro[3.3]heptan-2-yl]-[6-[[3-(trifluoromethyl-sulfonimidoyl)phenyl]methyl]-2-azaspiro[3.3]heptan-2-yl]methanone] — 6.5-fold lower, 0.25 nM
- CS(=N)(=O)c1cccc(CC2CC3(C2)CN(C(=O)N2CC4(CC(n5cnc(C6CC6)n5)C4)C2)C3)c1 (single isomer, unassigned) [Example 440, [6-(3-cyclopropyl-1,2,4-triazol-1-yl)-2-azaspiro[3.3]heptan-2-yl]-[6-[[3-(methylsulfonimidoyl)phenyl]methyl]-2-azaspiro[3.3]heptan-2-yl]methanone] — within 1.5-fold, 1.88 nM
- CS(=N)(=O)c1cccc(CC2CC3(C2)CN(C(=O)N2CC4(CC(n5cnc(C6CC6)n5)C4)C2)C3)c1 (single isomer, unassigned) [Example 441, [6-(3-cyclopropyl-1,2,4-triazol-1-yl)-2-azaspiro[3.3]heptan-2-yl]-[6-[[3-(methylsulfonimidoyl)phenyl]methyl]-2-azaspiro[3.3]heptan-2-yl]methanone] — within 1.5-fold, 1.97 nM
- CS(=N)(=O)c1ccc(CC2CC3(C2)CN(C(=O)N2CC4(CC(n5cnc(C6CC6)n5)C4)C2)C3)cc1 (single isomer, unassigned) [Example 442, [6-(3-cyclopropyl-1,2,4-triazol-1-yl)-2-azaspiro[3.3]heptan-2-yl]-[6-[[4-(methylsulfonimidoyl)phenyl]methyl]-2-azaspiro[3.3]heptan-2-yl]methanone] — within 1.5-fold, 2.22 nM
- CS(=N)(=O)c1ccc(CC2CC3(C2)CN(C(=O)N2CC4(CC(n5cnc(C6CC6)n5)C4)C2)C3)cc1 (single isomer, unassigned) [Example 443, [6-(3-cyclopropyl-1,2,4-triazol-1-yl)-2-azaspiro[3.3]heptan-2-yl]-[6-[[4-(methylsulfonimidoyl)phenyl]methyl]-2-azaspiro[3.3]heptan-2-yl]methanone] — 2.6-fold higher, 4.31 nM
- NC(=O)[C@H]1CC(F)(F)CCN1c1ccc(C2CN(C(=O)N3CC4(CC(n5cnc(C6CC6)n5)C4)C3)C2)cc1 (single isomer, unassigned) [Example 493] — within 1.5-fold, 1.28 nM
- NC(=O)[C@H]1CC(F)(F)CCN1c1ccc(C2CN(C(=O)N3CC4(CC(n5cnc(C6CC6)n5)C4)C3)C2)cc1 (single isomer, unassigned) [Example 494] — within 1.5-fold, 2.34 nM
- O=C(N1CC2(CC(n3cnc(C4(O)CC4)n3)C2)C1)N1CC2(CC[C@H](Cc3ncc(F)cc3F)C2)C1 (stereo in doubt) [Example 351, [6-[3-(1-hydroxycyclopropyl)-1,2,4-triazol-1-yl]-2-azaspiro[3.3]heptan-2-yl]-[(6S)-6-[(3,5-difluoro-2-pyridyl)methyl]-2-azaspiro[3.4]octan-2-yl]methanone] — 15-fold higher, 24.7 nM
- O=C(N1CC2(CC(n3cnc(C4(O)CC4)n3)C2)C1)N1CC2(CC[C@@H](Cc3ncc(F)cc3F)C2)C1 (stereo in doubt) [Example 352, [6-[3-(1-hydroxycyclopropyl)-1,2,4-triazol-1-yl]-2-azaspiro[3.3]heptan-2-yl]-[(6R)-6-[(3,5-difluoro-2-pyridyl)methyl]-2-azaspiro[3.4]octan-2-yl]methanone] — 2.7-fold higher, 4.36 nM
- O=C(N1CC(c2ccc(N3CCC(C(F)(F)F)C3)nc2)C1)N1CC2(CC(n3cnc(C4CC4)n3)C2)C1 (stereo in doubt) [Example 480, [6-(3-cyclopropyl-1,2,4-triazol-1-yl)-2-azaspiro[3.3]heptan-2-yl]-[3-[6-[(3S)-3-(trifluoromethyl)pyrrolidin-1-yl]-3-pyridyl]azetidin-1-yl]methanone] — 3.3-fold lower, 0.49 nM
- O=C(N1CC(c2ccc(C3(C(F)(F)F)CC3)cc2)C1)N1CC2(CC(n3cnc(C4CC4)n3)C2)C1 [Example 1, (6-(3-cyclopropyl-1H-1,2,4-triazol-1-yl)-2-azaspiro[3.3]heptan-2-yl)(3-(4-(1-(trifluoromethyl)cyclopropyl)phenyl)azetidin-1-yl)methanone] — 16-fold lower, 0.1 nM
- O=C(N1CC(c2nc(CC3(C(F)(F)F)CC3)no2)C1)N1CC2(CC(n3cnc(C4CC4)n3)C2)C1 [Example 2, [6-(3-cyclopropyl-1,2,4-triazol-1-yl)-2-azaspiro[3.3]heptan-2-yl]-[3-[3-[[1-(trifluoromethyl)cyclo-propyl]methyl]-1,2,4-oxadiazol-5-yl]azetidin-1-yl]methanone] — 16-fold higher, 25.7 nM
- CC(C)(C)c1nc(-c2ccc(C(=O)N3CC4(CC(n5cnc(C6CC6)n5)C4)C3)cc2)no1 [Example 3, [4-(5-tert-butyl-1,2,4-oxadiazol-3-yl)phenyl]−[6-(3-cyclopropyl-1,2,4-triazol-1-yl)-2-azaspiro[3.3]heptan-2-yl]methanone] — 3.1-fold higher, 5.1 nM
- CC(C)(C)c1nc(-c2ccc(C(=O)N3CC4(CC(n5cnc(C(F)(F)F)n5)C4)C3)cc2)no1 [Example 4, (4-(5-(tert-butyl)-1,2,4-oxadiazol-3-yl)phenyl)(6-(3-(trifluoromethyl)-1H-1,2,4-triazol-1-yl)-2-azaspiro[3.3]heptan-2-yl)methanone] — 7-fold higher, 11.4 nM
- CC(C)(C)c1nc(-c2ccc(C(=O)N3CC4(CC(n5ccc(C(F)(F)F)n5)C4)C3)cc2)no1 [Example 5, [4-(5-tert-butyl-1,2,4-oxadiazol-3-yl)phenyl]-[6-[3-(trifluoromethyl)pyrazol-1-yl]-2-azaspiro[3.3]heptan-2-yl]methanone] — 53-fold higher, 85.9 nM
